Results: patent publication US20100168406A1, “USE OF GINSENOSIDE Rb2 MONOMER IN THE MANUFACTURE OF MEDICAMENTS FOR THROMBOLYSIS” (priority 2006, published 2010)

What was measured:
thrombi = experiment: In vitro thrombolytic effect on capillary thrombi (24 h, 37° C.); format: biochemical, Wistar rats
Description: Nine female Wistar rats were used. Blood samples were taken from postorbital venous plexus using hard neutral glass capillary, 4 capillaries for each rat and 36 capillaries in total. The capillaries which contained the blood samples were left over night and the thrombi were then removed. The 4 thrombus samples of each rat were placed into test tubes containing 1 ml NS solution, 1000 U urokinase in 1 ml NS solution, 1 mg Rb2 (80%) in 1 ml NS solution and 1 mg Rb2 (98%) in 1 ml NS solution, respectively. All the test tubes were placed into a water bath at a temperature of 37° C. with shaking at an interval of 30 minutes. 24 hours later, the solutions were decanted, the remaining thrombi were weighed and the thrombolysis rate was calculated. Thrombolysis rate=(starting weight of thrombus−remaining weight of thrombus)/starting weight of thrombus×100%

KunMing mice [1] = experiment: Degree of cardiomyopathy (HE staining of heart) in Isoprel-induced acute myocardial necrosis; format: in vivo; conditions: 40 mg/kg intraperitoneal, Isoprel-treated mice, of 10 animals
Description: (§1) 20 KunMing mice, 10 male and 10 female, were randomly divided into the control group and the administration group. The control group received intraperitoneal injection of physiological saline from Day 1 to Day 7 and subcutaneous injection of Isoprel at a dosage of 0.3 ml (7.5 mg/kg) on Day 5 and Day 6. The ginsenoside monomer Rb2 administration group received intraperitoneal injection of ginsenoside monomer Rb2 at a dosage of 40 mg/kg for 4 consecutive days; subcutaneous injection of Isoprel at a dosage of 0.3 ml (7.5 mg/kg) followed by intraperitoneal injection of ginsenoside monomer Rb2 at a dosage of 40 mg/kg on Day 5; intraperitoneal injection of ginsenoside monomer Rb2 at a dosage of 40 mg/kg followed by subcutaneous injection of Isoprel on Day 6. On Day 7, 30 min after intraperitoneal injection of ginsenoside monomer Rb2, the auricle microcirculation was determined. The data obtained from the study were subjected to t-test between groups.
After the determination of auricle microcirculation, animals were sacrificed and heart samples were removed for HE staining for microscopic examination. The samples were classified according to the grading standards for cardiomyopathy.

KunMing mice [2] = experiment: Auricle microcirculation in mice with Isoprel-induced acute myocardial necrosis; format: in vivo; conditions: 40 mg/kg intraperitoneal Day 1-7, Isoprel 7.5 mg/kg sc Day 5 and 6, 30 min after last dose
Description: as §1

blood clots = experiment: In vitro thrombolytic effect on rat blood clots (6 h, 37° C.); format: biochemical, rats
Description: Rats used in the study were anaesthetized by urethane. Blood samples were taken from abdominal aorta, placed in plastic tubes, and were removed after 24 hours of coagulation. The blood clot was semi-blotted with filter paper and cut into pieces. 90 to 120 mg blood clots were accurately weighed and put into test tubes, to which NS, an Rb2 solution of 200 μg/ml, 100 μg/ml, or 50 μg/ml, or a urokinase solution of 50 U/ml, in a volume of 1 ml was added, respectively, and were then placed into a thermostatic horizontal shaking bath at a temperature of 37° C. and with a shaking frequency of 90 times/min for 6 hours. The undissolved blood clots were removed and weighed after semi-blotting with filter paper. The relative thrombolysis rate was calculated. SPSS 10.0 statistical software was used to perform t test among groups.

[3] = test system: arteriovenous shunt thrombus in rats; experiment: Arteriovenous shunt thrombosis method, in vivo thrombolytic effect; design: species or system Winstar rats; conditions: femoral vein injection given twice
Description: Arteriovenous shunt thrombosis method was applied in Winstar rats to observe the inhibition of thrombosis in rats. Under intraperitoneal anesthesia with mebumal sodium, a polyethylene tube penetrated by a silk thread was placed between the right common carotid artery and the left external jugular vein, to allow blood flow through the thread for 15 min. Upon formation of a thrombus, the test agents were injected into femoral vein, and again after an interval of 15 min, both of the same dosage. 45 min post administration, the silk thread was removed rapidly and weighed. Subtraction of the weight of silk thread from the total weight yielded the weight of the thrombus (mg). The thrombus was dried in an oven at a temperature of 60° C. for 4 hours, so as to give the dry weight (mg) of the thrombus.

mice = experiment: Effect of Rb2 (~60%) on auricle microcirculation in mice; format: in vivo; conditions: 120 mg/10 ml/kg intragastric for 3 days, 30 minutes after last administration
Description: 20 mice, 10 male and 10 female, were randomly divided into the control group and the administration group. Animals in the administration group received intragastric administration of Rb2 at 120 mg/10 ml/kg for 3 days. Animals in the control group were given water of the same volume. The calibers, flow rate and flow pattern of V3 grade arteriole and venule were determined 30 minutes after the last administration. The data obtained from the study was subjected to t-test between groups.

Wistar rats = experiment: Reperfusion injury after bilateral common carotid artery clamping, morphological examination of cerebral tissue; format: in vivo; conditions: Rb2 purity 90%, 10 mg/kg iv after reperfusion, brains examined 1 hour after administration
Description: Male Wistar rats weighing 300±20 g were supplied by the Animal Office of Tianjin Institute of Pharmaceutical Research.
Rb2 was prepared with NS in a ratio of […] for intravenous injection in rats before use.
30 rats were randomly divided into 3 groups with 10 rats in each group. The sham operation group received (iv) physiological saline, the model group received (iv) physiological saline and the Rb2 (with a purity of 90%) group received (iv) 10 mg/kg. All groups were administered through intravenous injection after reperfusion injury.
The rats were weighed at the time of experiment. They were anaesthetized by urethane (lg/kg) through intraperitoneal injection, laid on their back on the operation table, and cut in the middle of the neck. The common carotid arteries on both sides were dissected and clamped using small-sized artery clamps. 2 hours later, the clamps were loosened to restore blood supply, and the animals were given intravenous administration immediately. The rats were decapitated 1 hour after the administration, the brains were removed and placed into a 10% formaldehyde solution for fixation, followed by morphological examination of the cerebral tissue.

Compound: CC(C)=CCC[C@](C)(O[C@@H]1O[C@H](CO[C@@H]2OC[C@H](O)[C@H](O)[C@H]2O)[C@@H](O)[C@H](O)[C@H]1O)[C@H]1CC[C@]2(C)[C@@H]1[C@H](O)C[C@@H]1[C@@]3(C)CC[C@H](O[C@@H]4O[C@H](CO)[C@@H](O)[C@H](O)[C@H]4O[C@@H]4O[C@H](CO)[C@@H](O)[C@H](O)[C@H]4O)C(C)(C)[C@@H]3CC[C@]12C [Rb2 (98%), ginsenoside Rb2]
- Final weight of thrombus (thrombi; 1 mg/ml in NS): 5.5 ± 3.2 mg
- Thrombolysis rate % (thrombi; 1 mg/ml in NS): 71.5%

Compound: CC(C)=CCC[C@](C)(O[C@@H]1O[C@H](CO[C@@H]2OC[C@H](O)[C@H](O)[C@H]2O)[C@@H](O)[C@H](O)[C@H]1O)[C@H]1CC[C@]2(C)[C@@H]1[C@H](O)C[C@@H]1[C@@]3(C)CC[C@H](O[C@@H]4O[C@H](CO)[C@@H](O)[C@H](O)[C@H]4O[C@@H]4O[C@H](CO)[C@@H](O)[C@H](O)[C@H]4O)C(C)(C)[C@@H]3CC[C@]12C [Rb2, ginsenoside Rb2]
- Thrombolysis rate % (thrombi; 1 mg/ml in NS, listed as Ginsenoside monomer Rb2): ≥ 70%
- Degree of cardiomyopathy +++, number of animals (KunMing mice [1]): 1
- Degree of cardiomyopathy ++, number of animals (KunMing mice [1]): 2
- Degree of cardiomyopathy +, number of animals (KunMing mice [1]): 3
- Degree of cardiomyopathy −, number of animals (KunMing mice [1]): 4
- Blood flow velocity (KunMing mice [2]): 238 ± 22.59 um/s
- Caliber of artery (KunMing mice [2]): 39.08 ± 1.80 um
- Caliber of vein (KunMing mice [2]): 59.9 ± 3.58 um
- Relative thrombolysis % (blood clots; 50 μg/ml): 27.4 ± 8.3 %
- Weight of blood clot After lysis (blood clots; 50 μg/ml): 78.9 ± 17.8 mg
- Relative thrombolysis % (blood clots; 100 μg/ml): 28.0 ± 9.1 %
- Weight of blood clot After lysis (blood clots; 100 μg/ml): 81.4 ± 13.4 mg
- Relative thrombolysis % (blood clots; 200 μg/ml): 27.1 ± 9.1 %
- Weight of blood clot After lysis (blood clots; 200 μg/ml): 81.8 ± 13.4 mg
- Dry weight of thrombus ([3]; Rb2 purity 93.9%, 2.5 mg/kg): 8.50 ± 1.91 mg
- Inhibition % (dry weight of thrombus) ([3]; Rb2 purity 93.9%, 2.5 mg/kg): 15.59%
- Inhibition % (wet weight of thrombus) ([3]; Rb2 purity 93.9%, 2.5 mg/kg): 8.71%
- Wet weight of thrombus ([3]; Rb2 purity 93.9%, 2.5 mg/kg): 31.75 ± 8.54 mg
- Dry weight of thrombus ([3]; Rb2 purity 93.9%, 5 mg/kg): 6.60 ± 1.35 mg
- Inhibition % (dry weight of thrombus) ([3]; Rb2 purity 93.9%, 5 mg/kg): 34.46%
- Inhibition % (wet weight of thrombus) ([3]; Rb2 purity 93.9%, 5 mg/kg): 34.73%
- Wet weight of thrombus ([3]; Rb2 purity 93.9%, 5 mg/kg): 22.70 ± 4.94 mg
- Dry weight of thrombus ([3]; Rb2 purity 93.9%, 10 mg/kg): 6.87 ± 1.73 mg
- Inhibition % (dry weight of thrombus) ([3]; Rb2 purity 93.9%, 10 mg/kg): 31.72%
- Inhibition % (wet weight of thrombus) ([3]; Rb2 purity 93.9%, 10 mg/kg): 23.43%
- Wet weight of thrombus ([3]; Rb2 purity 93.9%, 10 mg/kg): 26.63 ± 5.04 mg
- Input branch (mice): 36.42 ± 0.81[…] um/s
- Output branch (mice): 65.77 ± 3.14 um/s
- Pathological changes of cerebral edema and cerebral ischemia vs model control group (Wistar rats): alleviated remarkably

Compound: Urokinase [reference compound]
- Final weight of thrombus (thrombi; 1000 U/ml in NS): 0 mg
- Thrombolysis rate % (thrombi; 1000 U/ml in NS): 100%
- Relative thrombolysis % (blood clots; 50 U/ml): 32.7 ± 10.0 %
- Weight of blood clot After lysis (blood clots; 50 U/ml): 73.8 ± 11.3 mg
- Dry weight of thrombus ([3]; 5000 U (5000 U/kg)): 6.62 ± 1.85 mg
- Inhibition % (dry weight of thrombus) ([3]; 5000 U (5000 U/kg)): 34.26%
- Inhibition % (wet weight of thrombus) ([3]; 5000 U (5000 U/kg)): 25.37%
- Wet weight of thrombus ([3]; 5000 U (5000 U/kg)): 25.37 ± 6.37 mg
